The source of these data is PubChem BioAssay (NCI).

The structures appear in SMILES notation. “And” between values parts separate entries of the source, which are not always exact repeats. Equal entries are not always repeated.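 Five concentrations, 48 hours, 96-well plates. GI50 marks 50% less growth. TGI marks complete inhibition of growth.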

Among the test systems are BT-549 breast; PC-3 prostate; NCI-H226 lung; COLO 205 colon; NCI/ADR-RES ovarian; SW-620 colon.
What all share (test): NCI-60 cell line screen, 48 h

In the case of `O=C1C=CC2(C=C1)CCN=c1c(O)c3c(c(O)c12)=NC=N3`, the GI50 with BT-549 breast is 18.1 µM and > 100 µM; with PC-3 prostate, 10.1 µM and > 100 µM; with NCI-H226 lung, 19 µM and > 100 µM; in the experiment with COLO 205 colon it was 21.2 µM and > 100 µM; in the experiment on NCI/ADR-RES ovarian, 22.7 µM and > 100 µM; in the experiment with SW-620 colon, 10.1 µM and > 100 µM. The TGI was 32.4 µM and > 100 µM in the experiment on BT-549 breast; 35 µM and > 100 µM in the experiment with PC-3 prostate; 38.4 µM and > 100 µM in the experiment on NCI-H226 lung; 36.7 µM and > 100 µM with COLO 205 colon; above 100 µM with NCI/ADR-RES ovarian; 32.2 µM and > 100 µM in the experiment on SW-620 colon.

In the case of `COC1CC2CCC(C)[C@](O)(O2)C(=O)C(=O)N2CCCCC2C(=O)OC(C(C)CC2CCC(O)C(OC)C2)CC(=O)C(C)C=C(C)C(OC(=O)CN(C)C)C(OC)C(=O)C(C)CC(C)/C=C/C=C/C=C\1C` (some centres undefined), the TGI in the experiment on PC-3 prostate came out at 21.2 µM; in the experiment on NCI-H226 lung, 22.3 µM; in the experiment on COLO 205 colon it was 25.2 µM; in the experiment with SW-620 colon, 21.9 µM.

For `O=C(/C=C\Sc1nccc(C(F)(F)F)n1)c1ccc(Br)cc1`, the GI50 in the experiment with BT-549 breast was 44.6 µM; in the experiment with PC-3 prostate, 15.4 µM; in the experiment on NCI-H226 lung it was 26.9 µM; in the experiment with COLO 205 colon it was 18.6 µM; with NCI/ADR-RES ovarian it was 20.2 µM; in the experiment on SW-620 colon, 30.5 µM. Moreover, the TGI is above 100 µM with BT-549 breast; 29.4 µM in the experiment with PC-3 prostate; 87.8 µM in the experiment with NCI-H226 lung; 36.5 µM in the experiment on COLO 205 colon; 52.7 µM in the experiment with NCI/ADR-RES ovarian; above 100 µM in the experiment on SW-620 colon.

In the case of `Cn1cc(C2=C(c3c4n(c5ccccc35)CCC(CN)CC4)C(=O)NC2=O)c2ccccc21` (centres undefined), the GI50 with BT-549 breast was 4.7 µM; with PC-3 prostate, 3.39 µM; in the experiment on NCI-H226 lung it was 5.01 µM; in the experiment with COLO 205 colon, 3.49 µM; with NCI/ADR-RES ovarian it was above 25 µM; in the experiment with SW-620 colon, 3.87 µM. Besides, the TGI was 8.62 µM in the experiment on BT-549 breast; 7.95 µM with PC-3 prostate; 16.2 µM in the experiment with NCI-H226 lung; 7.45 µM with COLO 205 colon; above 25 µM with NCI/ADR-RES ovarian; 7.9 µM in the experiment on SW-620 colon.

As to `O=C1/C(=C/c2ccc(Cl)cc2)CN(C(=O)C(Cl)Cl)C/C1=C\c1ccc(Cl)cc1`, the GI50 in the experiment on BT-549 breast is 0.259 µM; with PC-3 prostate, 0.199 µM; in the experiment on NCI-H226 lung, 0.211 µM; in the experiment with COLO 205 colon, 0.233 µM; in the experiment with NCI/ADR-RES ovarian it was 0.358 µM; in the experiment with SW-620 colon, 0.04 µM. In addition, the TGI was 0.765 µM with BT-549 breast; 0.686 µM in the experiment on PC-3 prostate; 0.454 µM in the experiment with NCI-H226 lung; 0.756 µM in the experiment with COLO 205 colon; above 32.9 µM with NCI/ADR-RES ovarian; 0.231 µM in the experiment with SW-620 colon.

On to `O=C(O)CC1(C(=O)O)CCCCC1`, for which the TGI in the experiment with BT-549 breast, in the experiment on PC-3 prostate, in the experiment on NCI-H226 lung, with COLO 205 colon, in the experiment with NCI/ADR-RES ovarian and with SW-620 colon was above 100 µM in each case.

Turning to `COC(=O)c1c2c(c(C)[n+]([O-])c1C)C(=O)C(NCc1ccc(F)c(F)c1)=CC2=O`, the GI50 was 2.14 µM with BT-549 breast; 1.91 µM in the experiment with PC-3 prostate; 2.69 µM in the experiment with NCI-H226 lung; 0.673 µM with COLO 205 colon; 2.3 µM in the experiment on NCI/ADR-RES ovarian; 2.17 µM in the experiment on SW-620 colon. Further, the TGI amounted to 5.86 µM in the experiment with BT-549 breast; 7.75 µM in the experiment on PC-3 prostate; 8.14 µM with NCI-H226 lung; 2.1 µM in the experiment with COLO 205 colon; 6.86 µM in the experiment on NCI/ADR-RES ovarian; 6.89 µM in the experiment on SW-620 colon.

Turning to `CCN(CC)CCOc1cc2c(C(=O)OC)c(C)oc2cc1C(C)=O`, the GI50 is 7.84 µM with BT-549 breast; 3.97 µM in the experiment with PC-3 prostate; 11.4 µM in the experiment on NCI-H226 lung; 8.27 µM in the experiment with COLO 205 colon; 13.6 µM in the experiment on NCI/ADR-RES ovarian; 7.56 µM in the experiment on SW-620 colon. Further, the TGI was 22.8 µM in the experiment with BT-549 breast; 13.7 µM in the experiment on PC-3 prostate; 25.2 µM with NCI-H226 lung; 26.6 µM in the experiment on COLO 205 colon; 26.6 µM in the experiment on NCI/ADR-RES ovarian; 23.9 µM in the experiment on SW-620 colon.

Turning to `CC(=O)OCC1OC(S[As](C)C)C(OC(C)=O)C1OC(C)=O` (centres undefined), the GI50 with BT-549 breast was 0.645 µM; in the experiment with PC-3 prostate it was 1.11 µM; in the experiment with NCI-H226 lung, 1.63 µM; with COLO 205 colon it was 0.176 µM; in the experiment with NCI/ADR-RES ovarian, 0.259 µM; in the experiment on SW-620 colon, 0.302 µM. For the same compound, the TGI with BT-549 breast was determined as 2.87 µM; in the experiment with PC-3 prostate, 13.1 µM; in the experiment with NCI-H226 lung it was 6.27 µM; in the experiment on COLO 205 colon it was 2.66 µM; in the experiment with NCI/ADR-RES ovarian, 2.48 µM; with SW-620 colon, 1.47 µM.

For the compound `O=C(O)c1cccc(CC(Br)C(=O)O)c1` (centres undefined), the TGI in the experiment on BT-549 breast, with PC-3 prostate, in the experiment with NCI-H226 lung, in the experiment on COLO 205 colon, with NCI/ADR-RES ovarian and in the experiment with SW-620 colon was above 100 µM in each case.

For the compound `CC(C)(O)[C@H]1[C@@H]2OC(=O)[C@H]1[C@]1(O)C[C@H]3OC34C(=O)O[C@H]2[C@@]41C` (some centres undefined) (tested in a mixture with another compound), the TGI with BT-549 breast, in the experiment with PC-3 prostate, with NCI-H226 lung, in the experiment on COLO 205 colon and with SW-620 colon was above 100 µM each time.

With `COC(=O)C#Cc1ccc([N+](=O)[O-])cc1`, the TGI turned out to be 3.34 µM with BT-549 breast; 13.1 µM in the experiment on PC-3 prostate; 5.72 µM with NCI-H226 lung; 3.41 µM with COLO 205 colon; 21.8 µM in the experiment with NCI/ADR-RES ovarian; 3.78 µM in the experiment with SW-620 colon.

Regarding `CC1(C)C2CCC13C(=O)C1OC3(C2)C2C(=O)c3c(O)ccc(O)c3C(=O)C12` (centres undefined), the GI50 with BT-549 breast was above 70.3 µM; in the experiment on PC-3 prostate, 30.8 µM; in the experiment on NCI-H226 lung, above 79 µM; in the experiment with COLO 205 colon, 25.9 µM; with NCI/ADR-RES ovarian it was 17.5 µM. For the same compound, the TGI with BT-549 breast is above 92.2 µM; in the experiment on PC-3 prostate, 98.5 µM; in the experiment with NCI-H226 lung it was above 100 µM; with COLO 205 colon, above 61.5 µM; in the experiment on NCI/ADR-RES ovarian, 59.1 µM.

Regarding `C[C@]12CCC(=O)C=C1CC[C@@H]1[C@@H]2CC[C@]2(C)C(=O)/C(=C/c3cccc(OCCN4CCOCC4)c3)C[C@@H]12`, the GI50 in the experiment on PC-3 prostate was 3.15 µM; in the experiment on NCI-H226 lung it was 14.2 µM; with COLO 205 colon, 5.21 µM; in the experiment with SW-620 colon, 8.45 µM. Also, the TGI in the experiment on PC-3 prostate is 29.2 µM; with NCI-H226 lung, above 100 µM; in the experiment on COLO 205 colon, 25.5 µM; with SW-620 colon it was 27.7 µM.
